The numbers were not newly measured in US8716482B2, “Substituted aminopiperidines as dipeptidyl peptidase-IV inhibitors for the treatment of diabetes” (Merck Sharp & Dohme Corp., priority 2009, dated 2014), which cites them from elsewhere.

One data set has as its system hematopoiesis. To be noted: mouse, cyclophosphamide-induced neutropenia.
For another data set, the target named is DPP-4 (Homo sapiens (Human), UniProt P27487).
Chain of DPP-4 (P27487 39-766, species assumed): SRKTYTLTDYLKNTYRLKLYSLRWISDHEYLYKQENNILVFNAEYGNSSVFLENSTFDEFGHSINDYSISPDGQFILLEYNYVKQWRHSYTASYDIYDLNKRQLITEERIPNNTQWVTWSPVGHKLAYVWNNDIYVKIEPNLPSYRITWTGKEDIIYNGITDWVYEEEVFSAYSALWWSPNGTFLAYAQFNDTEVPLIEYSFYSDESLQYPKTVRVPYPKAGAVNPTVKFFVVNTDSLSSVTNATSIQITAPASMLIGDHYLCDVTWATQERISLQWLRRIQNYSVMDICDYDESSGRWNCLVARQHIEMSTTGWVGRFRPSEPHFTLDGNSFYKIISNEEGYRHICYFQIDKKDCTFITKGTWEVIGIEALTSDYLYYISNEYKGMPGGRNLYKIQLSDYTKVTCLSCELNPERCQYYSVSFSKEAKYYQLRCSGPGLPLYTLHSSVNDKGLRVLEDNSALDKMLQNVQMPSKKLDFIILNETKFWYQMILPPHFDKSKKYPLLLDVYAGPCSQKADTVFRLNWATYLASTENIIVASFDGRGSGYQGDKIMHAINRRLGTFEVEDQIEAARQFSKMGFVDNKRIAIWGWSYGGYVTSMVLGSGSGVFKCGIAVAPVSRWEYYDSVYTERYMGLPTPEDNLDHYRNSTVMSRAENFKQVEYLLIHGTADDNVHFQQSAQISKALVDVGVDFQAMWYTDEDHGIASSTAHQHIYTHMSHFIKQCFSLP

Turning to `CC(C)[C@H](N)C(=O)N1CCC[C@H]1B(O)O` [Val-Boro-Pro], in the data set on hematopoiesis, the hematopoiesis entry is “stimulated hematopoiesis”.

Turning to diprotin A, the “degradation of GRF in plasma to GRF[3-44]” value at DPP-4 is listed as “prevented”.
